# Legend:
# [1] = molecular target: T1, AMPKα1β1γ2 with β1 Δ1–185 (ΔCBD) (Homo sapiens, UniProt Q13131+Q9UGJ0); assay: AMPKα1β1γ2 mutagenesis, activation assay; format: biochemical; conditions: 1 μM C2; complex purified from COS1 cells
# T1 construct: made in house; host or cells: COS1 cells (transient transfection, FLAG-M2 purification)
# Protocol: Figure 2 C2 Is a Partial Agonist of α2 Complexes and Selectively Protects α1 Complexes against Dephosphorylation by PP2C (A and B) Recombinant AMPKα1β1γ1 (A) or AMPKα2β1γ1 (B) was assayed in the presence of AMP (30 μM) and increasing concentrations of C2 (0–20 μM). Results are expressed as fold increase in activity relative to controls without ligand and represent the mean ± SD for three independent experiments. (C and D) The effects of C2 and AMP on dephosphorylation and inactivation of AMPKα1β1γ1 (C) and α2β1γ1 (D) by PP2Cα (present in all assay conditions). Results are expressed as a percentage of control reactions performed in the absence of Mg^2+ and represent the mean ± SD of three independent experiments. Representative blots of pT172 and total AMPKα are shown below the bar charts. […] Results are expressed as the fold increase in activity relative to controls in the absence of compound and represent the mean ± SD for three independent experiments. […]
# Competitive elution of AMPKγ2 from ATP-Sepharose. […] Resin was pelleted at low speed and the resulting supernatant analysed for the presence of AMPKγ2 by SDS-PAGE and staining with colloidal Coomassie (Generon). […]
# human AMPK = test system: human AMPK; parameters: method as in Gómez-Galeno et al., 2010; conditions: isoform combination not specified; ref Gómez-Galeno et al., 2010; read-out: half-maximal effective concentration (EC50); cited from earlier work
# mouse hepatocytes = assay: Adenine nucleotide ratios by capillary electrophoresis; format: cell-based; conditions: 1 hr; C13 up to 100 μM
# Protocol: Figure 4 The C2 Prodrug, C13, Potently Activates AMPK in Mouse Primary Hepatocytes (A) Isolated mouse hepatocytes were incubated with vehicle or the indicated concentrations of C13 for 1 hr. AICAR (0.5 mM) was included as a positive control. Cell lysates were analyzed using western blotting with the indicated antibodies. (B) AMPKα1 or AMPKα2 complexes were immunoprecipitated from hepatocyte extracts prepared as described in (A) and assayed for kinase activity using 0.2 mM AMARA and 0.1 mM ATP. Results are expressed as the mean Pi incorporated in picomoles per minute-milligram ± SD. (C) Hepatocytes were stimulated with 30 μM C13 for the indicated times prior to harvesting, with AICAR (0.5 mM, 1 hr) as positive control. Lysates were analyzed using western blotting with the indicated antibodies. (D) Mouse hepatocytes were treated with the indicated compounds for 1 hr, and adenine nucleotide ratios were determined using capillary electrophoresis of perchloric acid extracts. (E) Mouse hepatocytes were preincubated with 30 μM STO-609 for 30 min prior to stimulation with 30 μM C13 for 1 hr or with 1 μM ionomycin for 30 min. Lysates were analyzed using western blotting with the indicated antibodies. (F) Wild-type (LKB1^+/+) or LKB1-null (LKB1^−/−) mouse embryonic fibroblasts were incubated with the indicated concentrations of C13 for 1 hr. AICAR (2 mM) was included as a positive control. Lysates were analyzed using western blotting with the indicated antibodies. Results are representative of three independent experiments. […]
# Isolation of primary hepatocytes. Hepatocytes were isolated from fasted mice by collagenase digestion (Berry and Friend, 1969). Cells were seeded in M199 containing 100 U/ml penicillin G, 100 µg/ml streptomycin, 0.1 % (w/v) BSA, 10 % (v/v) FBS, 10 nM insulin, 200 nM triiodothyronine and 100 nM dexamethasone. […]
# Nucleotide measurements. […] Nucleotides were separated and quantified by capillary electrophoresis using a Beckman P/ACE instrument as previously described (Hawley, et al., 2010).
# T1 sequence (Q13131 whole entry, stated change not applied): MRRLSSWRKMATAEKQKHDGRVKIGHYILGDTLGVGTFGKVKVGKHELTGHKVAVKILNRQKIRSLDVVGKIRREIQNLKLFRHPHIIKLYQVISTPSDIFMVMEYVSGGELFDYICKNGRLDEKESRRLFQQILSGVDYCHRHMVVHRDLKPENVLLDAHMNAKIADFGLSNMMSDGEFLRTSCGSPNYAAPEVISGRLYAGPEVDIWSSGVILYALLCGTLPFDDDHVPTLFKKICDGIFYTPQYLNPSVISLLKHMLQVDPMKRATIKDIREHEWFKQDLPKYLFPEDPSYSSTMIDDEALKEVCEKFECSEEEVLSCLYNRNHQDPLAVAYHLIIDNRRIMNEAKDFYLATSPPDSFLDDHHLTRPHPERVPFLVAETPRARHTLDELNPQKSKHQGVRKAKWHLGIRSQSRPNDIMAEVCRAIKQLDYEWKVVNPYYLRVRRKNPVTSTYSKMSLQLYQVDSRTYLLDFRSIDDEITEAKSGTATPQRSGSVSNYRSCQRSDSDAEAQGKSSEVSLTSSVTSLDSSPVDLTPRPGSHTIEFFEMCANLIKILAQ
# T1 sequence (Q9Y478 186-270 partner): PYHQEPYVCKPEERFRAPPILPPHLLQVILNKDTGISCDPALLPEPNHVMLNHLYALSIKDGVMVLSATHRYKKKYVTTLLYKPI
# T1 sequence (Q9UGJ0 whole entry, stated change not applied): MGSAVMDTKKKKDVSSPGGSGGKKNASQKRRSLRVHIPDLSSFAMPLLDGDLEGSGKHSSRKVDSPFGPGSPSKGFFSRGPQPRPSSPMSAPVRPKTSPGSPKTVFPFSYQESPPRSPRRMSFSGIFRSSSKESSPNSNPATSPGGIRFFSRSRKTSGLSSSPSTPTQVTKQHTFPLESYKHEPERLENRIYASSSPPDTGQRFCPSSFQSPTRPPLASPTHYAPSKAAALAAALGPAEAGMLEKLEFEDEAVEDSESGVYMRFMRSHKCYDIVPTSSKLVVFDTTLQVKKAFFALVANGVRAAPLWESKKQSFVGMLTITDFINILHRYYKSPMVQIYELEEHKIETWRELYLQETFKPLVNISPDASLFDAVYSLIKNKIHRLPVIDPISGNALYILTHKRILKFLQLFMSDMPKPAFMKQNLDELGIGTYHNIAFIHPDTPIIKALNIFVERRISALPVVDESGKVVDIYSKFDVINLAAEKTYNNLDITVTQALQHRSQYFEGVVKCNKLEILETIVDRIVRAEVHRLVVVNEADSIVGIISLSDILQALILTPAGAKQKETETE
SMILES,activation of mutant complex [1],EC50 (human AMPK) [nM],ADP:ATP and AMP:ATP ratios (mouse hepatocytes)
"O=P(O)(O)c1ccc(-c2cc(O)on2)o1 [Compound C2, 5-(5-hydroxyl-isoxazol-3-yl)-furan-2-phosphonic acid]",unaffected,6.3,
CC(C)C(=O)OCOP(=O)(OCOC(=O)C(C)C)c1ccc(C2=NOC(=O)C2)o1 [Compound C13],,,no detectable changes

# Source: paper PMC4104029, “Mechanism of Action of Compound-13: An α1-Selective Small Molecule Activator of AMPK” (Chemistry & Biology, 2014)
